Test results taken from patent US5358964A, “Benzylidene-lactone and their thiocarbonyl analogs as inhibitors of proteoglycan degradation” (Warner-Lambert Company, priority 1993, dated 1994).

Tested on: IL-1-induced proteoglycan degradation in bovine nasal cartilage
Assay: Bovine Nasal Cartilage (BNC) assay: inhibition of IL-1-induced proteoglycan degradation (chondroitin sulfate release, 1,9-DMB)
Type: cell-based
Details: Bos taurus, bovine nasal cartilage explants, IL-1β (500 U); for IC50: 48 h with compound + 24 h fresh media, dose responses 10, 1, 0.1 μM
From the text: The BNC (bovine nasal cartilage) assay provides a model for evaluating chrondroprotective compounds that block cartilage degradation through inhibition of enzyme activity or by altering the gene expression of the matrix metalloproteinase stromelysin.
Bovine nasal cartilage is obtained from a local slaughter house (Milan, Mich.); cell culture reagents from Gibco (Grand Island, N.Y.); human recombinant Interleukin-1β (IL-1β) from Boehringer Mannheim (Indianapolis, Ind.); DMB from Polysciences (Warrington, Pa.); Falcon 24 well flat-bottom tissue culture plates from Becton Dickinson (Lincoln Park, N.J.); disposable 20-mL scintillation vials from Kimble Glass (Vinland, N.J.); Papain from Sigma (P-3125, St. Louis, Miss.); high purity dimethyl sulfoxide from Burdic & Jackson (081-1, Distributed by Baxter Healthcare, McGraw Park, Ill.); Sarstedt vials for radioimmune assays (Sarstedt, Newton, N.C.); Sarstedt 96-vial aluminum racks (Sarstedt, Newton, N. C.); Cetus Pro/Pette (Perkin Elmer, Norwalk, Conn.).
The assay is accomplished in two phases. The cartilage plugs are first incubated with IL-1 in the presence of compounds. The amount of proteoglycan released is then quantified by measuring chondroitin sulfate present in the media using the 1,9-Dimethylmethylene Blue Assay.
Cartilage Culture. Bovine nasal septum is dissected free of surrounding tissue and wiped with 70% alcohol. A sterile cork borer is used to remove 5-mm cartilage disks of 2 to 3 mm thickness. Explants are equilibrated for 96 hours in F-12 supplemented with 10% fetal calf serum (FCS) and antibiotics at 37° C. in a humidified atmosphere of 95% air and 5% CO2. Explants are then rinsed with 1 mL F-12 Nutrient Mixture (without phenol red) in order to remove traces of FCS. Each treatment group is done in triplicate allowing: controls (500 μL F-12 medium + 110 μL PBS with 0.1% BSA + 7 μL DMSO); IL-1β (500 μL F-12 medium without phenol red + 100 μL IL-1β (500 U) + 7 μL DMSO + 10 μL PBS with 0.1 % BSA); and dose responses (10, 1, and 0.1 μM) (F-12 medium without phenol red + 100 μL IL-1β (500 U) + 7 μL compound dissolved in DMSO + 10 μL PBS with 0.1% BSA), to be tested per each 24-well plate. The cartilage plugs are incubated in the presence of conditioned media (IL-1β + compound) for 48 hours. […]
Quantitation of Cartilage Degradation. The ability of a compound to inhibit proteoglycan released from the cartilage plugs is quantified by measuring chondroitin sulfate. […] This color change is measured using a Titertek Multiscan MCC 340 plate reader at 540 nm. […] It is necessary to dilute (1:5, 1:10) the medium before a […] is performed by adding 10 μL of collected media to 290 μL DMF (16 mg dye/1 L of 0.1M formate buffer, pH 3.5, containing 5 mL ethanol) and reading […]. […]

**Q.** Which inhibition at 0.1 µM (@ 0.10 μM, read-out: Percent Inhibition @ μM) does the source give for `O=C1OCC/C1=C\c1ccccc1Nc1ccccc1` [Example 4, (E)-4,5-Dihydro-3-[[2-(phenylamino)phenyl]methylene]2(3H) -furanone] here?
**A.** Its inhibition at 0.1 µM is 70%.

**Q.** For `O=C1OCC/C1=C\c1ccccc1Nc1cccc(C(F)(F)F)c1` [Example 3, (E)-4,5-Dihydro-3-[[2-[[3-(trifluoromethyl)phenyl]-amino]phenyl]methylene]-2(3H)-furanone], which IC50 is on record?
**A.** The IC50 was 520 nM.

**Q.** With `Cc1ccc(Cl)c(Nc2ccccc2/C=C2\CCOC2=S)c1Cl` [Example 2, (E)-3-[[2-[(2,6-Dichloro-3-methylphenyl)amino]phenyl]methylene]-4,5-dihydro-2(3H) -furanthione] as the molecule, how does the inhibition at 10 µM (@ 10.0 μM, read-out: Percent Inhibition @ μM) read?
**A.** Its inhibition at 10 µM is over 50%.

**Q.** With `Cc1ccc(Cl)c(Nc2ccccc2/C=C2\CCOC2=O)c1Cl` [Example 1, (E)-3-[[2-[(2,6-Dichloro-3-methylphenyl)amino]phenyl]methylene]4,5-dihydro-2(3H)-furanone] as the molecule, how does the IC50 read?
**A.** Its IC50 is 390 nM.
